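Dose response: 5 concentrations. Exposure: 48 h. Format: 96-well plates. Endpoint: linear interpolation; highest concentration if not reached. TGI denotes the concentration required for complete inhibition of growth.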
The compounds below were run on A549 NSCLC (assay: DTP human tumour cell line panel, 48 h).

How did the TGI turn out when COc1cccc(C2c3cc4c(cc3OC(N3CCCCC3)C2C)OCO4)c1O (centres undefined) was run?
The TGI was greater than 66.5 µM.

Which TGI does the source give for O=C1c2ccccc2C(=O)c2c(NCC(O)CO)ccc(NCC(O)CO)c21 (centres undefined) here?
Its TGI is greater than 100 µM.

CC1=C(C)CC2C(=O)N(c3cc(C(C)(C)C)ccc3C(C)(C)C)C(=O)C2C1 (centres undefined) was tested. Which TGI did it give?
The TGI was greater than 100 µM.

With O=[N+]([O-])c1ccc(CN(CCCl)OCCCl)cc1 as the compound, how does the TGI read?
Its TGI is greater than 100 µM.

CC1=NN(c2nc(N)nc(/C(C#N)=C\c3ccc([N+](=O)[O-])s3)n2)C(C)(C)C1 was tested. Which TGI did it give?
Its TGI is 16.5 µM.

O=c1[nH]cnc2c1cnn2Cc1cn(CCCCO)nn1 was tested. Which TGI did it give?
The TGI was greater than 100 µM.

C/C=C/C(CC(O)(C(F)(F)F)C(F)(F)F)=N/NC(N)=S was tested. Which TGI did it give?
The TGI was greater than 10 µM.

How did the TGI turn out when CN1CCc2c([nH]c3ccccc23)C1 was run?
Its TGI is greater than 100 µM.

With O=C(N/N=C(\c1ccccc1)c1ccccn1)NC1CCCCC1 as the compound, how does the TGI read?
The TGI was greater than 100 µM.

Which TGI does the source give for CCO/C(O)=C(/C(=N)N1CCOCC1)C(=O)Nc1ccc(F)cc1 here?
Its TGI is greater than 100 µM.

For COc1cc(Nc2nc3ccccc3nc2C(=O)O)cc(OC)c1OC, which TGI is on record?
Its TGI is greater than 100 µM.

These compounds were tested on KM12 colon (assay: DTP human tumour cell line panel, 48 h).

For Cc1ccc(S(=O)(=O)c2[nH]cc(/C(=C\C3CCCCC3)[N+](=O)[O-])c2C2CCCCC2)cc1, which TGI is on record?
The TGI was 4.1 µM.

O=C1C=CC(=O)c2c1ccc1c3ccccc3n(CCCCCn3c4ccccc4c4ccc5c(c43)C(=O)C=CC5=O)c21 was tested. Which TGI did it give?
Its TGI is greater than 100 µM.

For C=C(Cl)C(=CCl)CCC(Br)C(C)(C)Cl (mixture of isomers), which TGI is on record?
The TGI was greater than 10 µM.

Which TGI does the source give for Nc1ccc2c(c1)C(=O)N1CCC[C@H]1C(=O)N2 here?
Its TGI is greater than 100 µM.

Which TGI does the source give for Cc1ccc(/C=N/Nc2cc(C)c3cccc(C)c3n2)s1 here?
The TGI was 23.7 µM.

For CC(=O)N(C(C)=O)c1ncc(-n2nc(-c3ccccc3)cc2-c2ccccc2)c(-c2ccccc2)n1, which TGI is on record?
The TGI was greater than 10 µM.

With CN1C(=O)c2ccccc2OC12C=Cc1c(ccc3ccccc13)O2 (centres undefined) as the compound, how does the TGI read?
Its TGI is 8.64 µM.

For CO/N=C(\C(=O)OC(=NC1CCCCC1)NC1CCCCC1)c1csc(NC(c2ccccc2)(c2ccccc2)c2ccccc2)n1, which TGI is on record?
Its TGI is greater than 10 µM.

With O=C1Sc2cc3ccccc3cc2C(=O)Sc2ccc(Br)cc21 as the compound, how does the TGI read?
Its TGI is 21.2 µM.

With Cc1ccc2c(c1)C(=S)N1CSCC1c1nncn1-2 (centres undefined) as the compound, how does the TGI read?
Its TGI is greater than 100 µM.

With CC(C)NC(=O)OCc1c(COC(=O)NC(C)C)c(-c2cc[n+](COC(=O)C3CC3)cc2)n2c1CCC2 as the compound, how does the TGI read?
The TGI was greater than 100 µM.

For COC(=O)C1=C(C(=O)OC)N(c2ccc(OC)cc2[N+](=O)[O-])C(c2ccc(C)cc2)=CC1c1ccc(OC)cc1OC (centres undefined), which TGI is on record?
The TGI was 25.7 µM.

COc1cccc(C2c3cc4c(cc3OC(N3CCCCC3)C2C)OCO4)c1O (centres undefined) was tested. Which TGI did it give?
Its TGI is 23.1 µM.

Which TGI does the source give for CC1=C(C)CC2C(=O)N(c3cc(C(C)(C)C)ccc3C(C)(C)C)C(=O)C2C1 (centres undefined) here?
Its TGI is greater than 100 µM.

Which TGI does the source give for O=[N+]([O-])c1ccc(CN(CCCl)OCCCl)cc1 here?
The TGI was greater than 100 µM.

For CC1=NN(c2nc(N)nc(/C(C#N)=C\c3ccc([N+](=O)[O-])s3)n2)C(C)(C)C1, which TGI is on record?
The TGI was 1.85 µM.

How did the TGI turn out when O=c1[nH]cnc2c1cnn2Cc1cn(CCCCO)nn1 was run?
The TGI was greater than 100 µM.

C/C=C/C(CC(O)(C(F)(F)F)C(F)(F)F)=N/NC(N)=S was tested. Which TGI did it give?
Its TGI is greater than 10 µM.

Which TGI does the source give for O=C1/C(=C/c2ccc(Br)s2)NC(=S)N1c1ccccc1 here?
Its TGI is greater than 100 µM.

CN1CCc2c([nH]c3ccccc23)C1 was tested. Which TGI did it give?
Its TGI is greater than 100 µM.

For O=C(N/N=C(\c1ccccc1)c1ccccn1)NC1CCCCC1, which TGI is on record?
Its TGI is greater than 100 µM.

How did the TGI turn out when CCO/C(O)=C(/C(=N)N1CCOCC1)C(=O)Nc1ccc(F)cc1 was run?
The TGI was greater than 100 µM.

Which TGI does the source give for COc1cc(Nc2nc3ccccc3nc2C(=O)O)cc(OC)c1OC here?
Its TGI is greater than 100 µM.

The compounds below were run on IGROV1 ovarian (assay: DTP human tumour cell line panel, 48 h).

How did the TGI turn out when Cc1ccc(S(=O)(=O)c2[nH]cc(/C(=C\C3CCCCC3)[N+](=O)[O-])c2C2CCCCC2)cc1 was run?
The TGI was 1.13 µM.

How did the TGI turn out when O=C1C=CC(=O)c2c1ccc1c3ccccc3n(CCCCCn3c4ccccc4c4ccc5c(c43)C(=O)C=CC5=O)c21 was run?
Its TGI is 20.6 µM.

With C=C(Cl)C(=CCl)CCC(Br)C(C)(C)Cl (mixture of isomers) as the compound, how does the TGI read?
The TGI was greater than 10 µM.

For Nc1ccc2c(c1)C(=O)N1CCC[C@H]1C(=O)N2, which TGI is on record?
The TGI was greater than 100 µM.

How did the TGI turn out when Cc1ccc(/C=N/Nc2cc(C)c3cccc(C)c3n2)s1 was run?
Its TGI is 22.2 µM.

With CC(=O)N(C(C)=O)c1ncc(-n2nc(-c3ccccc3)cc2-c2ccccc2)c(-c2ccccc2)n1 as the compound, how does the TGI read?
Its TGI is greater than 10 µM.

For CN1C(=O)c2ccccc2OC12C=Cc1c(ccc3ccccc13)O2 (centres undefined), which TGI is on record?
Its TGI is 30.8 µM.

With CO/N=C(\C(=O)OC(=NC1CCCCC1)NC1CCCCC1)c1csc(NC(c2ccccc2)(c2ccccc2)c2ccccc2)n1 as the compound, how does the TGI read?
The TGI was greater than 10 µM.

Which TGI does the source give for O=C1Sc2cc3ccccc3cc2C(=O)Sc2ccc(Br)cc21 here?
The TGI was 16.8 µM.

Cc1ccc2c(c1)C(=S)N1CSCC1c1nncn1-2 (centres undefined) was tested. Which TGI did it give?
Its TGI is greater than 100 µM.

Which TGI does the source give for CC(C)NC(=O)OCc1c(COC(=O)NC(C)C)c(-c2cc[n+](COC(=O)C3CC3)cc2)n2c1CCC2 here?
The TGI was greater than 100 µM.

Which TGI does the source give for COC(=O)C1=C(C(=O)OC)N(c2ccc(OC)cc2[N+](=O)[O-])C(c2ccc(C)cc2)=CC1c1ccc(OC)cc1OC (centres undefined) here?
Its TGI is 56.8 µM.

Which TGI does the source give for COc1cccc(C2c3cc4c(cc3OC(N3CCCCC3)C2C)OCO4)c1O (centres undefined) here?
The TGI was greater than 100 µM.

Which TGI does the source give for O=C1c2ccccc2C(=O)c2c(NCC(O)CO)ccc(NCC(O)CO)c21 (centres undefined) here?
Its TGI is greater than 100 µM.

Which TGI does the source give for CC1=C(C)CC2C(=O)N(c3cc(C(C)(C)C)ccc3C(C)(C)C)C(=O)C2C1 (centres undefined) here?
Its TGI is greater than 100 µM.

For O=[N+]([O-])c1ccc(CN(CCCl)OCCCl)cc1, which TGI is on record?
The TGI was greater than 100 µM.

CC1=NN(c2nc(N)nc(/C(C#N)=C\c3ccc([N+](=O)[O-])s3)n2)C(C)(C)C1 was tested. Which TGI did it give?
Its TGI is 0.287 µM.

For O=c1[nH]cnc2c1cnn2Cc1cn(CCCCO)nn1, which TGI is on record?
Its TGI is greater than 100 µM.

For C/C=C/C(CC(O)(C(F)(F)F)C(F)(F)F)=N/NC(N)=S, which TGI is on record?
The TGI was greater than 10 µM.

O=C1/C(=C/c2ccc(Br)s2)NC(=S)N1c1ccccc1 was tested. Which TGI did it give?
The TGI was greater than 100 µM.

How did the TGI turn out when CN1CCc2c([nH]c3ccccc23)C1 was run?
Its TGI is greater than 100 µM.

With O=C(N/N=C(\c1ccccc1)c1ccccn1)NC1CCCCC1 as the compound, how does the TGI read?
Its TGI is greater than 100 µM.

CCO/C(O)=C(/C(=N)N1CCOCC1)C(=O)Nc1ccc(F)cc1 was tested. Which TGI did it give?
Its TGI is greater than 100 µM.

For COc1cc(Nc2nc3ccccc3nc2C(=O)O)cc(OC)c1OC, which TGI is on record?
The TGI was greater than 100 µM.

These compounds were tested on NCI-H226 lung (assay: DTP human tumour cell line panel, 48 h).

For Cc1ccc(S(=O)(=O)c2[nH]cc(/C(=C\C3CCCCC3)[N+](=O)[O-])c2C2CCCCC2)cc1, which TGI is on record?
Its TGI is 9.9 µM.
